Measured values as given in article PMC12754783 (2025).

Legend:
[1] = tested on: 222T_mA (DNA, G4) TGGGTTGGGAAGGGTTGGGT; experiment: native ESI-MS screening (single concentration); conditions: 0.5 mM K+, 100 mM TMAA pH 6.8, 10 µM DNA, 20 µM ligand
[2] = tested on: T24 (DNA, single strand) TTTTTTTTTTTTTTTTTTTTTTTT; experiment: native ESI-MS titration; conditions: 0.5 mM K+; 100 mM TMAA pH 6.8, 10 µM DNA, up to 40 µM ligand
[3] = tested on: 222T (DNA, G4) TGGGTTGGGTTGGGTTGGGT; experiment: native ESI-MS screening (single concentration); conditions: 0.5 mM K+, 100 mM TMAA pH 6.8, 10 µM DNA, 20 µM ligand
[4] = tested on: 5YEY (DNA, G4) GGGTTAGGGTTAGGGTTTGGG; experiment: native ESI-MS screening (single concentration); conditions: 0.5 mM K+; 100 mM TMAA pH 6.8, 10 µM DNA, 20 µM ligand; stepwise KD1 (KD2 40)
[5] = tested on: 1XAV (DNA, G4) TGAGGGTGGGTAGGGTGGGTAA; experiment: native ESI-MS screening (single concentration); conditions: 0.5 mM K+, 100 mM TMAA pH 6.8, 10 µM DNA, 20 µM ligand
[6] = tested on: 5YEY (DNA, G4) GGGTTAGGGTTAGGGTTTGGG; experiment: native ESI-MS titration; conditions: 0.5 mM K+, 100 mM TMAA pH 6.8, 10 µM DNA
[7] = tested on: 222T (DNA, G4) TGGGTTGGGTTGGGTTGGGT; experiment: UV melting 295 nm; conditions: 0.5 mM K+; 100 mM TMAA pH 6.8; 10 µM DNA, 20 µM QQPQ; two transitions
TG4T (DNA, G4) TGGGGT = experiment: native ESI-MS screening (single concentration); conditions: K+ 0.5 mM (KCl) with 100 mM TMAA, or NH4+ 150 mM; source does not say which; pH 6.8, 10 µM DNA, 20 µM ligand; stepwise KD1
[8] = tested on: 5YEY (DNA, G4) GGGTTAGGGTTAGGGTTTGGG; experiment: UV melting 295 nm; conditions: 0.5 mM K+; 100 mM TMAA pH 6.8; 10 µM DNA, 20 µM QQPQ
[9] = tested on: 26TTA (DNA, G4) TTAGGGTTAGGGTTAGGGTTAGGGTT; experiment: native ESI-MS screening (single concentration); conditions: 0.5 mM K+; 100 mM TMAA pH 6.8, 10 µM DNA, 20 µM ligand; stepwise KD1
[10] = tested on: T30177TT (DNA, G4) TTGTGGTGGGTGGGTGGGT; experiment: UV melting 295 nm; conditions: 0.5 mM K+; 100 mM TMAA pH 6.8; 10 µM DNA, 20 µM QQPQ; two transitions
[11] = tested on: 22GT_18T (DNA, G4) GGGTTAGGGTTAGGGTTTGGGT; experiment: native ESI-MS screening (single concentration); conditions: 0.5 mM K+; 100 mM TMAA pH 6.8, 10 µM DNA, 20 µM ligand; stepwise KD1
[12] = tested on: 1XAV (DNA, G4) TGAGGGTGGGTAGGGTGGGTAA; experiment: native ESI-MS titration; conditions: 0.5 mM K+; 100 mM TMAA pH 6.8, 10 µM DNA; stepwise KD1
[13] = tested on: 21G (DNA, G4) GGGTTAGGGTTAGGGTTAGGG; experiment: native ESI-MS titration; conditions: 0.5 mM K+; 100 mM TMAA pH 6.8, 10 µM DNA; KD1 differs 20-fold from 5YEY
[14] = stepwise KD1, exact value in Table S3

Question: What does the source list for `CC(=O)Nc1cccc2c(OCCCN)cc(C(=O)NCc3cccc(C(=O)NCc4cccc(C(=O)Nc5cccc6c(OCCCN)cc(C(=O)O)nc56)n4)n3)nc12`?
Answer: KD1 ([1]; stepwise KD1 (KD2 3.4)): 8.9 µM; KD [2]: > 100 µM; KD1 ([3]; stepwise KD1 (KD2 5.4)): 2.3 µM; KD1 [4]: 75 µM; KD1 ([5]; stepwise KD1 (KD2 7.4)): 5.2 µM

Question: How did the KD1 ([6]; stepwise KD1 (KD2 200 ± 70), screening gave 1.5) turn out when `CC(=O)Nc1cccc2c(OCCCN)cc(C(=O)Nc3cccc4c(OCCCN)cc(C(=O)NCc5cccc(C(=O)Nc6cccc7c(OCCCN)cc(C(=O)O)nc67)n5)nc34)nc12` was run?
Answer: Its KD1 is 0.54 ± 0.1 µM.

Question: And the KD1 ([1]; stepwise KD1 (KD2 1.0))?
Answer: Its KD1 is 2.2 µM.

Question: And the ΔTm [7]?
Answer: The ΔTm was “~ +26 °C”.

Question: What about the KD [2] of the same molecule?
Answer: The KD was > 100 µM.

Question: What about the KD1 (TG4T (DNA, G4) TGGGGT) of the same molecule?
Answer: Its KD1 is ~ 5 µM.

Question: What about the KD1 ([3]; stepwise KD1 (KD2 2.1)) of the same molecule?
Answer: The KD1 was 0.5 µM.

Question: What about the ΔTm [8] of the same molecule?
Answer: The ΔTm was “+8.2 °C”.

Question: And the KD1 [9]?
Answer: Its KD1 is ~ 5 µM.

Question: And the ΔTm [10]?
Answer: The ΔTm was 17 °C.

Question: What about the KD1 [11] of the same molecule?
Answer: The KD1 was ~ 5 µM.

Question: What about the KD1 ([5]; stepwise KD1 (KD2 1.5)) of the same molecule?
Answer: The KD1 was 0.5 µM.

Question: Which KD1 [12] does the source give for `CC(=O)Nc1cccc2c(OCCCN)cc(C(=O)Nc3cccc4c(OCCCN)cc(C(=O)Nc5cccc6c(OCCCN)cc(C(=O)Nc7cccc8c(OCCCN)cc(C(=O)Nc9cccc%10c(OCCCN)cc(C(=O)Nc%11cccc%12c(OCCCN)cc(C(=O)Nc%13cccc%14c(OCCCN)cc(C(=O)Nc%15cccc%16c(OCCCN)cc(C(=O)O)nc%15%16)nc%13%14)nc%11%12)nc9%10)nc78)nc56)nc34)nc12` here?
Answer: Its KD1 is 28 ± 6.7 µM.

Question: For `CC(=O)Nc1cccc2c(OCCCN)cc(C(=O)Nc3cccc4c(OCCCN)cc(C(=O)Nc5cccc6c(OCCCN)cc(C(=O)Nc7cccc8c(OCCCN)cc(C(=O)O)nc78)nc56)nc34)nc12`, which KD1 [6, 14] is on record?
Answer: The KD1 was < 10 µM.

Question: What about the KD1 ([1]; stepwise KD1 (KD2 4.5)) of the same molecule?
Answer: Its KD1 is 12 µM.

Question: And the KD1 ([3]; stepwise KD1 (KD2 2.0))?
Answer: Its KD1 is 1.1 µM.

Question: And the KD1 [12]?
Answer: The KD1 was 0.075 ± 0.059 µM.

Question: And the KD1 [13]?
Answer: The KD1 was 330 ± 23 µM.

Question: For `CC(=O)Nc1cccc2c(OCCCN)cc(C(=O)Nc3cccc4c(OCCCN)cc(C(=O)Nc5cccc6c(OCCCN)cc(C(=O)Nc7cccc8c(OCCCN)cc(C(=O)Nc9cccc%10c(OCCCN)cc(C(=O)O)nc9%10)nc78)nc56)nc34)nc12`, which KD1 [6, 14] is on record?
Answer: Its KD1 is < 10 µM.

Question: Which KD1 ([1]; stepwise KD1 (KD2 14)) does the source give for `CC(=O)Nc1cccc2c(OCCCN)cc(C(=O)NCc3cccc(C(=O)Nc4cccc5c(OCCCN)cc(C(=O)O)nc45)n3)nc12` here?
Answer: Its KD1 is 25 µM.

Question: And the KD [2]?
Answer: Its KD is > 100 µM.

Question: And the KD1 ([3]; stepwise KD1 (KD2 22))?
Answer: Its KD1 is 4.8 µM.

Question: And the KD1 ([5]; stepwise KD1 (KD2 27))?
Answer: The KD1 was 15 µM.
